The values that follow come from US20120329813A1 (Cardoz AB, priority 2009, published 2012).

The conditions of data set [1]: apparently healthy subjects with normal or low LDL cholesterol and elevated CRP; 1.9 years; cited from earlier work.
Data set [2] concerns CRP. The following applies: subjects with prediabetes and elevated serum TNF-alpha; cited from earlier work.
Data set [3] has as its system hsCRP. To be noted: patients with chronic obstructive pulmonary disease; cited from earlier work.
Data set [4] has as its system plasma CRP. Nature of the data set: Plasma CRP (high sensitivity CRP assay) in healthy volunteers treated perorally with pemirolast potassium for five days. It is filed as in vivo, human. On the procedure: (§1) Plasma CRP was determined with a high sensitivity CRP assay (based on Near Infrared Particle Immunoassay rate methodology) on a UniCel DxC 800 instrument from Beckman Coulter (analysis performed at the Department of Clinical Chemistry, Karolinska University Laboratory, Stockholm, Sweden). The degree of mast cell activity was determined by measuring plasma tryptase with the ImmunoCAP Tryptase Fluoro-Immuno-Enzymatic Assay on a ImmunoCAP 250 instrument from Phadia (analysis performed at Clinical Immunology and Transfusion Medicine, Karolinska University Laboratory, Stockholm, Sweden).

The test system of data set [5] is plasma tryptase. In words: Plasma tryptase (ImmunoCAP Tryptase Fluoro-Immuno-Enzymatic Assay) in healthy volunteers before and after pemirolast treatment. It is filed as in vivo, human. How it is done:
as §1

Data set [6] concerns plasma C-reactive protein (CRP). In words: Plasma CRP (hsCRP assay) in a patient with coronary artery disease treated with pemirolast potassium for two weeks. It counts as in vivo, human. To be noted: CAD patient, 30 mg b.i.d., 6.4 mg/L on Day 1 before the first dose. On the procedure: The study was approved by the Swedish Medical Products Agency, and performed by Berzelius Clinical Research Centre AB in Linköping, Sweden (the clinic).
Plasma CRP was determined with the high sensitivity CRP (hsCRP) assay described in Example 1 above.
(§2) The first dose (3×10 mg) was administered in the morning of Day 1 at the clinic, the second dose in the evening of Day 1 at home, and then 3×10 mg b.i.d. at home during Days 2 to 14. The last dose was administered in the evening of Day 14 at home.
(§3) The CAD patient was a person with a body height of 188 cm and a body weight of 103 kg. They were on treatment with enalapril 20 mg QD (once daily) for hypertension since 2006. After a myocardial infarction in 2009, they were started on treatment with simvastatin 40 mg QD, acetylsalicylic acid 75 mg QD, and metoprolol 100 mg QD (all three drugs started in June 2009). Since January 2010, the patient was also treated with felodipin 5 mg QD. During the two week treatment with pemirolast, the patient continued to take these medications.

A short description of data set [7]: Safety in the CAD patient during the two week pemirolast treatment. It is filed as in vivo, human. The following applies: 30 mg b.i.d. for two weeks. How it is done:
as §2, §3

For data set [8] the following is noted: human, in vivo, po.
Protocol: During days 2-4, each subject received one dose in the morning and one dose in the evening with a time interval of 12 hours between the daily doses. […] Other than the occasional use of nasal decongestants or paracetamol, the subjects were instructed not to use other drugs, alcohol or nicotine during the study.

As for `CC(C)c1nc(N(C)S(C)(=O)=O)nc(-c2ccc(F)cc2)c1/C=C/[C@@H](O)C[C@@H](O)CC(=O)O` [rosuvastatin], the “effect on cardiovascular morbidity/mortality” value in data set [1] was “significantly reduces”.
Regarding `CN1CCC(=C2c3ccccc3CC(=O)c3sccc32)CC1` [ketotifen], the “effect on CRP” value in data set [2] was “not to reduce CRP”.
`Cn1c(=O)c2[nH]cnc2n(C)c1=O` [theophylline]: the “effect on hsCRP” value in data set [3] was “not to reduce hsCRP”.
In the case of `Cc1cccn2c(=O)c(-c3nnn[nH]3)cnc12` [pemirolast], in data set [4] (four subjects with baseline CRP >0.9 mg/L, 10, 30 or 50 mg day 1-5), the “effect on CRP levels (FIG. 1)” value is recorded as “markedly reduced”. Besides, the “mean CRP level at the end of the pemirolast treatment” value in data set [4] (four subjects with baseline plasma CRP >0.9 mg/L, 10, 30 or 50 mg per os b.i.d. day 1-5, 1.8 mg/L before treatment, p<0.05) amounted to 1.1 mg/L; in data set [4] (remaining subjects with baseline CRP below 0.9 mg/L (n=13), 0.32 mg/L before treatment), 0.38 mg/L. In addition, the “effect on tryptase levels” value in data set [5] (four subjects with SLGI, plasma CRP >0.9 mg/L) is “did not reduce”. Also, in data set [5] (four subjects with plasma CRP >0.9 mg/L, both before and after pemirolast treatment), the “mean plasma tryptase level” value was 4.8 µg/L. Also, the CRP level was determined as 4.0 mg/L in data set [6] (Day 8) and 1.8 mg/L in data set [6] (morning of Day 15). For the same molecule, the adverse events entry in data set [7] was “did not report any adverse events”. Moreover, in data set [8], the “AUC and Cmax versus dose” value is recorded as “increased in a dose-proportional manner”.
